# Source: patent publication US20230285402A1, “Compositions and Methods of Modulating Short-Chain Dehydrogenase Activity” (BOARD OF REGENTS OF THE UNIVERSITY OF TEXAS SYSTEM, priority 2013, published 2023)
# What was measured:
# [1] = tested on: mice; assay: Bone marrow transplant after 11Gy, SW033291 5 mg/kg IP twice daily: survival and blood/marrow counts; assay type: in vivo, mouse
# [2] = tested on: FVB male mice; assay: Dextran sodium sulfate (DSS) induced colitis, FVB male mice, SW033291 5 mg/kg IP twice daily; assay type: in vivo, mouse
# [3] = tested on: A549 cells; assay: Cellular toxicity by CellTiter-Glo; assay type: cell-based; settings: concentrations of up to 10 μM; 24 hours
# Method: FIGS. 38(A-C) show assays of cellular toxicity on A549 cells at 24 hours of 15-PGDH inhibitors as assayed by CellTiter-Glo measurement.
# [4] = tested on: C57BL/6J female mice; assay: Survival after acetaminophen (Tylenol) 600 mg/kg IP (LD50), C57BL/6J female mice, SW033291 5 mg/kg IP; assay type: in vivo, mouse; settings: for number of mice surviving: first dose immediately after Tylenol
# [5] = day 5 after transplant, 500,000 donor cells
smiles,measurement,setting,value
"CCCC[S+]([O-])c1sc2nc(-c3cccs3)cc(-c3ccccc3)c2c1N (stereo not drawn) [SW033291, 2-(butylsulfinyl)-4-phenyl-6-(thiophen-2-yl)thieno[2,3-b]pyridin-3-amine]",median survival vs control,"[1]; 100,000 donor cells",approximate doubling of median survival
same,survival at 30 days,"[1]; 200,000 donor cells","all mice receiving 200,000 donor cells plus SW033291 survived"
same,survival at 30 days,"[1]; 500,000 donor cells",all survived
same,total platelet count vs control,[1]; [5],significantly higher total platelet count
same,total white count vs control,[1]; [5],significantly higher total white count
same,platelet count,"[1]; day 8 after transplant, control 39,500","77,000"
same,total white counts vs control,[1]; day 12 after transplant,significantly greater total white counts
same,hemoglobin level,"[1]; day 12 after transplant, control 8.3",11.58
same,neutrophil count,"[1]; day 12 after transplant, control 125",332
same,lymphocyte count vs control,[1]; day 18 after transplant,significantly higher
same,platelet counts vs control,[1]; day 18 after transplant,significantly higher platelet counts
same,total white count vs control,[1]; day 18 after transplant,significantly higher total white count
same,neutrophil count,"[1]; day 18 after transplant, control 365",835
same,mean SKL marked bone marrow cells,"[1]; day 18 after transplant, control 967",4127
same,change from baseline weight vs control,[2]; 22 days of study,greater weight at all time points
same,Colon length,[2]; Baseline,8.4 ± 0.2 cm
same,Wt @ sacrifice,[2]; Baseline,25.9 ± 0.7 gm
same,Colon length,[2]; Day 8,6.6 ± 0.1 cm
same,Wt @ sacrifice,[2]; Day 8,26.4 ± 0.5 gm
same,Colon length,[2]; Day 15,7.5 ± 0.1 cm
same,Wt @ sacrifice,[2]; Day 15,25.2 ± 0.9 gm
same,Colon length,[2]; Day 22,8.6 ± 0.3 cm
same,Wt @ sacrifice,[2]; Day 22,28.2 ± 0.5 gm
same,share of ulcer formation prevented,"[2]; colonoscopy days 8, 11 and 15",two-thirds
same,reduction of length of ulcerated mucosa vs control,[2]; day 15,61%
same,average length of ulcerated mucosa,"[2]; day 15, N=6 mice, control 4.48",1.74 mm per colon section
same,MEICS score vs control,"[2]; days 8, 11 and 15",significantly less colitis activity
same,effect on CellTitre-Glo levels,[3],No effect
same,number of mice surviving,"[4]; 0 hrs, 1 dose/daily, cohort of 6",6
same,number of mice surviving,"[4]; 0 hrs, 2 dose/daily, cohort of 6",6
same,Survival (number of mice),"[4]; 0 hrs, bid from 3 hours prior to acetaminophen, 6 doses, cohort of 6",6
same,Survival (number of mice),"[4]; 0 hrs, bid from 48 hours prior to acetaminophen, 9 doses, cohort of 12",12
same,number of mice surviving,"[4]; 16 hr, 1 dose/daily, cohort of 6",6
same,number of mice surviving,"[4]; 16 hr, 2 dose/daily, cohort of 6",6
same,Survival (number of mice),"[4]; 16 hr, bid from 3 hours prior to acetaminophen, 6 doses, cohort of 6",6
same,Survival (number of mice),"[4]; 16 hr, bid from 48 hours prior to acetaminophen, 9 doses, cohort of 12",12
same,number of mice surviving,"[4]; 24 hrs, 1 dose/daily, cohort of 6",6
same,number of mice surviving,"[4]; 24 hrs, 2 dose/daily, cohort of 6",6
same,Survival (number of mice),"[4]; 24 hrs, bid from 3 hours prior to acetaminophen, 6 doses, cohort of 6",5
same,Survival (number of mice),"[4]; 24 hrs, bid from 48 hours prior to acetaminophen, 9 doses, cohort of 12",12
same,Survival (number of mice),"[4]; 40 hrs, bid from 48 hours prior to acetaminophen, 9 doses, cohort of 12",11
same,number of mice surviving,"[4]; 48 hrs, 2 dose/daily, cohort of 6",3
same,Survival (number of mice),"[4]; 48 hrs, bid from 3 hours prior to acetaminophen, 6 doses, cohort of 6",3
same,Survival (number of mice),"[4]; 48 hrs, bid from 48 hours prior to acetaminophen, 9 doses, cohort of 12",10
same,number of mice surviving,"[4]; 64 hrs, 2 dose/daily, cohort of 6",3
same,Survival (number of mice),"[4]; 64 hrs, bid from 3 hours prior to acetaminophen, 6 doses, cohort of 6",3
same,Survival (number of mice),"[4]; 64 hrs, bid from 48 hours prior to acetaminophen, 9 doses, cohort of 12",10
same,number of mice surviving,"[4]; 72 hrs, 2 dose/daily, cohort of 6",3
same,Survival (number of mice),"[4]; 72 hrs, bid from 3 hours prior to acetaminophen, 6 doses, cohort of 6",3
same,Survival (number of mice),"[4]; 72 hrs, bid from 48 hours prior to acetaminophen, 9 doses, cohort of 12",10
same,number of mice surviving,"[4]; 88 hr, 2 dose/daily, cohort of 6",3
same,Survival (number of mice),"[4]; 88 hr, bid from 3 hours prior to acetaminophen, 6 doses, cohort of 6",3
same,Survival (number of mice),"[4]; 88 hr, bid from 48 hours prior to acetaminophen, 9 doses, cohort of 12",10
same,number of mice surviving,"[4]; 96 hr, 2 dose/daily, cohort of 6",3
same,Survival (number of mice),"[4]; 96 hr, bid from 3 hours prior to acetaminophen, 6 doses, cohort of 6",3
same,Survival (number of mice),"[4]; 96 hr, bid from 48 hours prior to acetaminophen, 9 doses, cohort of 12",10
same,number of mice surviving,"[4]; 112 hr, 2 dose/daily, cohort of 6",3
same,Survival (number of mice),"[4]; 112 hr, bid from 3 hours prior to acetaminophen, 6 doses, cohort of 6",3
same,Survival (number of mice),"[4]; 112 hr, bid from 48 hours prior to acetaminophen, 9 doses, cohort of 12",10
same,number of mice surviving,"[4]; 120 hr, 2 dose/daily, cohort of 6",3
same,Survival (number of mice),"[4]; 120 hr, bid from 3 hours prior to acetaminophen, 6 doses, cohort of 6",3
same,Survival (number of mice),"[4]; 120 hr, bid from 48 hours prior to acetaminophen, 9 doses, cohort of 12",10
same,survival vs control mice,"[4]; dosing begun immediately following acetaminophen, once or twice daily, 0-120 hours",No difference
